This note sets out measurements from article PMC5893132, “Selective inhibition of histamine-evoked Ca^2+ signals by compartmentalized cAMP in human bronchial airway smooth muscle cells” (Cell Calcium, 2018).

SMILES strings stand for the structures.

Format in all cases: cell-based, human
One assay deals with L-type Ca^2+ channels. Description: Depolarization (K+)-evoked increase in [Ca2+]i in single fura-2-loaded hBASMCs. Particulars: nimodipine 10 μM, 5 min; extracellular Na+ replaced with K+ 140 mM; all 44 cells, mean ± SD, single experiment; 50 ± 11 nM in absence.
In assay [1] the test system is Ca^2+ signals evoked by histamine, bradykinin or carbachol in hBASMCs. Kind of assay: GPCR-evoked Ca2+ signals (histamine, bradykinin or carbachol, stated together) in hBASMCs. Particulars: HBSS; for whether the inhibitor substantially affected the Ca2+ signals evoked by histamine, bradykinin or carbachol: ryanodine 50 μM or trans Ned-19 1 μM, 5 min. Here is the method:
(§1) Two methods were used to measure [Ca^2+]i in populations of hBASMCs. For measurements using a FlexStation III plate-reader (Molecular Devices, Sunnyvale, CA, USA), hBASMCs were seeded into 96-well plates (10^4 cells per well). After about 4 days, when the cells were confluent, the medium was replaced with SMGM-2 without serum or growth factor supplements, and the cells were used after a further 24 h. […] Cells were washed with HEPES-buffered saline (HBS: 135 mM NaCl, 5.9 mM KCl, 1.2 mM MgCl2, 1.5 mM CaCl2, 11.6 mM HEPES, 11.5 mM D-glucose, pH 7.3), and loaded with fluo-4 by incubation with fluo-4-AM (2 μM) in HBS (100 μL per well) containing pluronic F127 (0.02%, v/v) and probenecid (2.5 mM). After 1 h at 20 °C, the medium was replaced with HBS (100 μL per well) containing probenecid (2.5 mM). After a further incubation at 20 °C for 1 h, the medium was replaced with HBS (60–80 μL per well) or nominally Ca^2+-free HBS, and the cells were used immediately for experiments at 20 °C. […] Drug additions (20 μL at 4 or 5 times the final concentration) were added automatically. Fluorescence from fluo-4 (excitation 485 nm, emission 525 nm) was recorded at 1.44-s intervals using Softmax Pro 5.4 (Molecular Devices). Fluorescence was calibrated to [Ca^2+]i from: [Ca^2+]i=KDCa×(F−Fmin/Fmax−F) where, KDCa is the equilibrium dissociation constant of fluo-4 for Ca^2+ (345 nM), F is the recorded fluorescence, and Fmin and Fmax are the fluorescence values recorded after addition of triton-X-100 (0.1%, v/v) with either BAPTA (10 mM, Fmin) or CaCl2 (10 mM, Fmax). […] Fmax was determined for each well at the end of an experiment, and the average value was used for each column of 8 wells. Fmin was determined from parallel wells on each plate.
(§2) For measurements of [Ca^2+]i using an FDSS 7000 FLIPR (Hamamatsu), hBASMCs were seeded into 384-well plates (8000 cells per well) in 20 μL of SMGM-2 containing 5% serum. […] The exact composition of this ‘no-wash’ indicator kit is not disclosed by the manufacturer, but it contains fluo-4-AM and components that reduce background fluorescence. […]

Assay [2] relates to histamine-evoked Ca^2+ signals in hBASMCs. Kind of assay: Histamine-evoked Ca2+ signals in populations of fluo-4-loaded hBASMCs. Particulars: for effect on the sensitivity to histamine: trans Ned-19 1 μM or ryanodine 50 μM, 5 min, HBSS; for effect on histamine-evoked Ca2+ signals: pre-treatment: 8-Br-cGMP, IBMX 20 min, forskolin 10 μM, NKH477 10 μM, butaprost 10 μM, TCS2510 1 μM 5 min. How it is done: Two methods were used to measure [Ca^2+]i in populations of hBASMCs. For measurements using a FlexStation III plate-reader (Molecular Devices, Sunnyvale, CA, USA), hBASMCs were seeded into 96-well plates (10^4 cells per well). After about 4 days, when the cells were confluent, the medium was replaced with SMGM-2 without serum or growth factor supplements, and the cells were used after a further 24 h. This period in serum-free medium increased by about 2-fold the amplitude of the increases in [Ca^2+]i evoked by histamine (results not shown). Cells were washed with HEPES-buffered saline (HBS: 135 mM NaCl, 5.9 mM KCl, 1.2 mM MgCl2, 1.5 mM CaCl2, 11.6 mM HEPES, 11.5 mM D-glucose, pH 7.3), and loaded with fluo-4 by incubation with fluo-4-AM (2 μM) in HBS (100 μL per well) containing pluronic F127 (0.02%, v/v) and probenecid (2.5 mM). After 1 h at 20 °C, the medium was replaced with HBS (100 μL per well) containing probenecid (2.5 mM). After a further incubation at 20 °C for 1 h, the medium was replaced with HBS (60–80 μL per well) or nominally Ca^2+-free HBS, and the cells were used immediately for experiments at 20 °C. In some experiments, BAPTA (2.5 mM) was added to HBS during the recording; this reduced the free [Ca^2+] of the HBS to ∼120 nM without affecting the pH. Drug additions (20 μL at 4 or 5 times the final concentration) were added automatically. Fluorescence from fluo-4 (excitation 485 nm, emission 525 nm) was recorded at 1.44-s intervals using Softmax Pro 5.4 (Molecular Devices). Fluorescence was calibrated to [Ca^2+]i from: [Ca^2+]i=KDCa×(F−Fmin/Fmax−F) where, KDCa is the equilibrium dissociation constant of fluo-4 for Ca^2+ (345 nM), F is the recorded fluorescence, and Fmin and Fmax are the fluorescence values recorded after addition of triton-X-100 (0.1%, v/v) with either BAPTA (10 mM, Fmin) or CaCl2 (10 mM, Fmax). Although treatment with triton-X-100 releases fluo-4 from cells into the medium, the fluo-4 fluorescence is captured with the same efficiency whether it is trapped within cells or dispersed within the small volume of the wells (unpublished observations). Fmax was determined for each well at the end of an experiment, and the average value was used for each column of 8 wells. Fmin was determined from parallel wells on each plate.
For measurements of [Ca^2+]i using an FDSS 7000 FLIPR (Hamamatsu), hBASMCs were seeded into 384-well plates (8000 cells per well) in 20 μL of SMGM-2 containing 5% serum. After 24 h, the medium was replaced with 15 μL of serum-free SMGM-2, and after a further 6 h the cells were loaded with Ca^2+ indicator by addition of FLIPR calcium 4 assay kit (Molecular Devices) supplemented with probenecid (2.5 mM). The exact composition of this ‘no-wash’ indicator kit is not disclosed by the manufacturer, but it contains fluo-4-AM and components that reduce background fluorescence. The manufacture’s stock solution was diluted 10-fold into HBSS containing BSA (0.1%, w/v) and HEPES (20 mM); 5 μL of this solution was then added to each well (containing 15 μL of serum-free SMGM-2). After 2 h at 37 °C in humidified air containing 5% CO2, the plate was used for experiments at 20 °C. Most additions (5 μL) were prepared in HBSS supplemented with HEPES (20 mM) and BSA (0.1%, w/v). For more prolonged incubations, drugs were diluted in the initial loading medium (to avoid changes in dye-loading during the ‘no wash’ protocol). Fluorescence signals (excitation at 480 nm, emission at 540 nm) were calibrated to [Ca^2+]i after measurement of Fmin and Fmax uniquely for each well, using a KDCa = 345 nM.
All concentration-effect relationships were determined by addition of different drug concentrations to individual wells in the same multi-well plate, rather than by sequential additions to the same well. […]

The test system of assay [3] is intracellular cAMP in hBASMCs. Kind of assay: Intracellular cAMP in hBASMCs by mass spectrometry. Particulars: IBMX 20 min; MS. Here is the method: These methods were modified from. Confluent cultures of hBASMCs in 48-well plates were serum-deprived (6–24 h) and the medium was then replaced with HBSS (300 μL) containing HEPES (5 mM) and BSA (0.1%, w/v). Cells were stimulated at 20 °C, and reactions were terminated by aspiration of the medium and addition of acetonitrile (170 μL) containing dibutyryl cAMP (0.5 μM, to provide an internal standard). The plates were centrifuged (1500 xg, 15 min, 4 °C), supernatants (158 μL) were transferred to a 96-well, glass-coated plate (Thermo Scientific), and aqueous NH4HCO3 (pH 9.4, 93 μL) was added to each sample. After mixing and centrifugation (1500 xg, 15 min, 4 °C), samples were stored at 4 °C before analysis. Samples were analyzed by liquid chromatography tandem mass spectrometry (LC–MS/MS) using a Waters Acquity UPLC and a Sciex 5500 mass spectrometer equipped with an electrospray ionization source. ATP, ADP, AMP and cAMP were analyzed using a ZIC-pHILIC polymeric column (5-μm particle size, […]) maintained at 35 °C. Calibration standards were prepared in the lysis medium containing the internal standard, dibutyryl cAMP (0.5 μM). […] Samples were detected using multiple reaction monitoring in negative ion mode using the following parent-to-daughter mass transitions: cAMP m/z 327.9 → 133.9 (DP −100 V, CE −33 eV), AMP m/z 345.9 → 134.0 (DP −100 V, CE −50 eV), ADP m/z 426.0 → 134.0 (DP −100 V, CE −30 eV), ATP m/z 505.9 → 408.0 (DP −100 V, CE −35 eV), and internal standard dibutyryl cAMP m/z 468.1 → 175.0 (DP −100 V, CE −35 eV). Concentration-effect relationships were fitted to logistic equations for each experiment using GraphPad Prism (version 5, GraphPad Software, La Jolla, CA, USA), from which half-maximally effective drug concentrations (EC50), maximal responses, and Hill slopes were determined. For statistical analyses, maximal responses, Hill slopes and pEC50 (-logEC50) or pIC50 (-log of the half-maximal inhibitory concentration, IC50) values determined for individual experiments were pooled for statistical analysis. […]

Assay [4] concerns intracellular Ca^2+ stores of hBASMCs. Description: Ca2+ content of intracellular stores, by ionomycin in Ca2+-free HBS. Particulars: isoproterenol, forskolin 10 μM, 5 min, 2-APB 5 min, higher concentrations needed than for inhibition of GPCR-evoked signals.
In assay [5] the test system is bradykinin-evoked Ca^2+ signals in hBASMCs. Kind of assay: Bradykinin-evoked Ca2+ signals in populations of fluo-4-loaded hBASMCs. Particulars: Homo sapiens; bradykinin 1 nM; pre-incubation 30 min; n = 3; read-out: pIC50 for inhibition of the Ca2+ signals evoked by bradykinin (converted). Here is the method: as §1, §2
Assay [6] concerns carbachol-evoked Ca^2+ signals in hBASMCs. Kind of assay: Carbachol-evoked Ca2+ signals in populations of fluo-4-loaded hBASMCs. Particulars: Homo sapiens; carbachol 10 μM; pre-incubation 30 min; n = 3; read-out: pIC50 for inhibition of the Ca2+ signals evoked by carbachol (converted). How it is done:
as §1, §2

On to `COCCOC(=O)C1=C(C)NC(C)=C(C(=O)OC(C)C)C1c1cccc([N+](=O)[O-])c1` (stereo not shown) [nimodipine], for which the “peak increase in [Ca2+]i on depolarization in presence of inhibitor” value with L-type Ca^2+ channels amounted to 20 ± 14 nM. In addition, in assay [1] (added 5 min before stimulus, nimodipine 10 μM, 2-APB indicated concentrations), the “effect on the increases in [Ca2+]i evoked by histamine, bradykinin and carbachol” value is listed as “unaffected”.

Regarding `CC(C)[C@@]1(O)[C@@H](OC(=O)c2ccc[nH]2)[C@@]2(O)[C@@]3(C)C[C@]4(O)O[C@@]5([C@H](O)[C@@H](C)CC[C@]35O)[C@@]2(O)[C@@]14C` [ryanodine], the “effect on the sensitivity to histamine” value in assay [2] is reported as “slightly reduced”. Further, the “whether the inhibitor substantially affected the Ca2+ signals evoked by histamine, bradykinin or carbachol” value in assay [1] is “Neither”.

Take `CC(C)Cn1c(=O)n(C)c(=O)c2[nH]cnc21` [IBMX, 3-isobutyl-1-methylxanthine]: the “effect on histamine-evoked Ca2+ signals” value in assay [2] is given as “an inhibition of histamine-evoked Ca^2+ signals”. For the same compound, in assay [3], the “effect on intracellular cAMP” value is “an accumulation of intracellular cAMP”.

`C=C[C@@]1(C)CC(=O)[C@]2(O)[C@@]3(C)[C@@H](O)CCC(C)(C)[C@@H]3[C@H](O)[C@H](OC(C)=O)[C@@]2(C)O1` [forskolin]: in assay [2], the “effect on histamine-evoked Ca2+ signals” value is on record as “mimicked the effect of isoproterenol”. In assay [4], the “effect on the Ca2+ content of the intracellular stores” value was “Neither isoproterenol nor forskolin (10 μM, 5 min) affected”.

As for `CCCCCCCCCCCCCCCCCCOCC(COP(=O)([O-])OCC[N+](C)(C)C)OC` (stereo not shown) [edelfosine], the IC50 in assay [2] (Homo sapiens, histamine 10 μM, pre-incubation 30 min, n = 3, read-out: pIC50 for inhibition of the Ca2+ signals evoked by histamine (converted)) is 22.9 µM; in assay [5] it was 33.9 µM; in assay [6], 39.8 µM.

Consider `COc1ccc([C@H]2N[C@H](C(=O)O)Cc3c2[nH]c2ccccc32)cc1CN1CCN(c2ccccc2F)CC1` (relative stereo) [trans Ned-19, trans-Ned-19], for which the “effect on the sensitivity to histamine” value in assay [2] is on record as “slightly reduced”. The “whether the inhibitor substantially affected the Ca2+ signals evoked by histamine, bradykinin or carbachol” value in assay [1] was “Neither”.
